Results as given in patent US12678478B2, “Compositions and methods for treating dysregulated wound healing” (The Regents of the University of California, priority 2020, dated 2026).

Columns and labels:
Col5a1CKO animals = assay: Acute ischemic cardiac injury (LAD ligation) in Col5a1CKO animals treated with cilengitide; format: in vivo, mouse
[1] = system: Col5a1CKO cardiac fibroblasts; assay: Myofibroblast gene expression (qPCR) in Col5a1CKO cardiac fibroblasts generated ex vivo with or without cilengitide; format: cell-based, mouse; details: Cilengitide 1 μM, 7 days, Col5a1 floxed cardiac fibroblasts infected with lentiviral Cre, versus no cilengitide (FIG. 8F)
Experimental: For qPCR, and RNA-seq, the injured and uninjured regions of the heart were harvested at different time points following injury, RNA extracted using RNeasy Mini kit (Qiagen). cDNAs were generated using iScript cDNA Synthesis Kit (BioRad) and qPCR performed.
Cardiac fibroblasts were isolated from Col5a1 fl/fl mouse as described above. These cells were infected with Lentivirus-Large T antigen in presence of polybrene (8 μg/ml) for 16 h, treated with puromycin (2 μg/ml) for selection of infected cells. Immortalized cells were cultured with 10% FBS containing high glucose DMEM. Cells so immortalized were then infected with Lentivirus-Cre recombinase or lentivirus-GFP to generate Col5a1 deficient cardiac fibroblast or control cardiac fibroblast, respectively. These cells were cultured for 6-7 days and used for each experiment to determine effects on gene expression. To determine an effect of Cilengitide on these cells, Col5a1fl/fl cardiac fibroblasts were pretreated with Cilengitide (1 μM) in 10% FBS containing high glucose DMEM for 1 h before infection with lentivirus-Cre recombinase or lentivirus-GFP. […]
Given the upregulation of αvβ3 and αvβ5 integrins in Col5a1CKO cardiac fibroblasts, whether there was a causal relationship between these differentially expressed integrins and myofibroblast differentiation was determined. […]

[2] = system: control (Cre(−)Col5a1fl/fl) littermate animals; assay: Acute ischemic cardiac injury (LAD ligation) in control littermates treated with cilengitide; format: in vivo, mouse
Experimental: All animal studies were approved by the Animal Research Committee, University of California, Los Angeles, Myocardial infarction was performed by ligating the left anterior descending (LAD) coronary artery following open thoracotomy. Briefly, Mice were anesthetized with ketamine (80 mg/kg)/xylazine (20 mg/kg) by intraperitoneal injection. Respiration was provided by mechanical ventilation with 95% 02 (tidal volume 0.5 ml, 130 breaths/min). The LAD coronary artery was ligated intramurally 2 mm from its origin with a 9-0 proline suture.
For experiments related to use of cilengitide, 20 mg/kg of Cilengitide diluted in PBS was administered by intraperitoneal injection every day until harvest and PBS was used as vehicle as a control.
For echocardiography, animals were continuously anesthetized with 1.5% isoflurane and 95% O2, Vevo2100 imaging system and a […] scan head (Toronto, Canada) were used to acquire short/long axis B-mode and M-mode images. Long axis B-mode view was used for analyzing peak longitudinal strain rate. […]
For Masson Trichrome staining, sections were stained using Masson Trichrome Stain kit (Thermo Scientific, 87019). Images were taken in heart sections from apex, mid-ventricle, and close to suture and fibrotic area analyzed from apex to mid-ventricle. Scar tissue area was calculated as the fraction of left ventricular surface area occupied by the scar tissue. […]

## CC(C)[C@H]1C(=O)N[C@@H](CCCN=C(N)N)C(=O)NCC(=O)N[C@@H](CC(=O)O)C(=O)N[C@H](Cc2ccccc2)C(=O)N1C [cilengitide, Cilengitide]
Col5a1CKO animals; 20 mg/kg daily for 14 days, 2 weeks post injury, severe = >50% fibrotic area (FIG. 8L)
  fraction of animals exhibiting severe fibrosis: 22%
Col5a1CKO animals; 20 mg/kg daily for 14 days, 2 weeks post injury, versus vehicle-injected group, p<0.05 (FIGS. 8N, 8O)
  degree of myocyte hypertrophy in the border zone (heart weight/body weight ratios and histological analysis): substantially reduced
Col5a1CKO animals; 20 mg/kg daily for 14 days, Masson trichrome, 2 weeks post injury, mean±S.D., n=9, p<0.05 versus Col5a1CKO+vehicle (FIGS. 8J, 8K)
  Scar size expressed as a fraction of left ventricular surface area: 41.2±16.1%
Col5a1CKO animals; 20 mg/kg daily intraperitoneal for 14 days from day of injury, 1 and 2 weeks after injury, versus vehicle-injected Col5a1CKO (FIGS. 8H, 8I)
  post injury cardiac function (EF, FS by echocardiography): complete rescue of function
Col5a1CKO animals; 2 weeks of cilengitide injection, 20 mg/kg daily, versus vehicle-injected group, p<0.05 (FIG. 8M)
  number of myofibroblasts (αSMA+vimentin+cells/vimentin+cells) in scars: significantly reduced
[1]
  expression of myofibroblast markers: significantly reduced
[2]; 20 mg/kg daily for 14 days from day of injury, control littermates (FIG. 8H)
  post injury cardiac function (EF, FS by echocardiography): did not affect
[2]; 20 mg/kg daily for 14 days, control animals, 2 weeks post injury (FIGS. 8J, 8K)
  scar size: did not affect
